Assay results: ChEMBL document CHEMBL4219269, “Synthesis and anti-staphylococcal activity of novel bacterial topoisomerase inhibitors with a 5-amino-1,3-dioxane linker moiety” (Bioorg Med Chem Lett, 2018)
Values after ≈ are worked out from the molar mass of the structure shown.

Legend:
[1] = Inhibition of human topoisomerase-2 in etoposide-resistant K/VP.5 cells assessed as growth inhibition
[2] = biological target: T1, Voltage-gated inwardly rectifying potassium channel KCNH2 (Homo sapiens, UniProt Q12809); assay: Inhibition of human ERG expressed in CHOK1 cells by patch clamp assay; assay type: cell-based
T1 sequence (Q12809 whole entry): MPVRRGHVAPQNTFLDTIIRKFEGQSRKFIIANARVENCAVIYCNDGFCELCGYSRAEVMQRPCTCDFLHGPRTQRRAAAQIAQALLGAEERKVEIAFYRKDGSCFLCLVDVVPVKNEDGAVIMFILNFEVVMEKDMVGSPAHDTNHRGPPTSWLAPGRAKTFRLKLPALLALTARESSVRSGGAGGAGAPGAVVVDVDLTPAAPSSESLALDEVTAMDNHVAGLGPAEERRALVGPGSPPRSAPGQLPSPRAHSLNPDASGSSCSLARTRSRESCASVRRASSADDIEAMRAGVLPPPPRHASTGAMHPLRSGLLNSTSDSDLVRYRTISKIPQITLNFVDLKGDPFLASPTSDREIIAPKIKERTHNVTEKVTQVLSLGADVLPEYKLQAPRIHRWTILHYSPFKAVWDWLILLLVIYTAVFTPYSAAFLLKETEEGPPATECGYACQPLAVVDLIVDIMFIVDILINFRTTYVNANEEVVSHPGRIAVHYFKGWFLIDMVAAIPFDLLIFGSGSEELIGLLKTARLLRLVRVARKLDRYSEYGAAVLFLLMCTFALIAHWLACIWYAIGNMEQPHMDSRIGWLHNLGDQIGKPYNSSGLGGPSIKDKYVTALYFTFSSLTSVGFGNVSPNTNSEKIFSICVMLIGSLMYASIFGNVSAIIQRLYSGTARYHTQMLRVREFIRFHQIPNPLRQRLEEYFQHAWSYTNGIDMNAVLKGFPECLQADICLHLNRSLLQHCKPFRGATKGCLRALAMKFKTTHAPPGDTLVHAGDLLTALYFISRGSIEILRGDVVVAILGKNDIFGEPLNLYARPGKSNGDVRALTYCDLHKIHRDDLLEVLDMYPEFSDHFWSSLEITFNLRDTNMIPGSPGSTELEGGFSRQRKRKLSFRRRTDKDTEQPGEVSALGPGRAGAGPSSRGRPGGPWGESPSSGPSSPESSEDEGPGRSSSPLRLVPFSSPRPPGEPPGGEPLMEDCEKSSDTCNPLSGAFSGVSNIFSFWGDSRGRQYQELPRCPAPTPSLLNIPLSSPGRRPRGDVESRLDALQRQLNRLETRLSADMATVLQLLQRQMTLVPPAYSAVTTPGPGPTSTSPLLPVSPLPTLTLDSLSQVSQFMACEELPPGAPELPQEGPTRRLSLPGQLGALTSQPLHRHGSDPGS

K562 = assay: Antiproliferative activity against human K562 cells; assay type: cell-based
Staphylococcus aureus [3] = assay: Antibacterial activity against methicillin-sensitive Staphylococcus aureus ATCC 29213 by CLSI method; assay type: functional
[4] = biological target: T1, Voltage-gated inwardly rectifying potassium channel KCNH2; assay: Inhibition of human ERG expressed in CHO cells using -80 mV holding potential measured after 3 mins; assay type: cell-based
[5] = Inhibition of Staphylococcus aureus topoisomerase-4-mediated kinetoplast DNA decatenation after 30 mins by agarose gel electrophoresis
Staphylococcus aureus [6] = assay: Antibacterial activity against methicillin-resistant Staphylococcus aureus USA300 by CLSI method; assay type: functional
[7] = Selectivity ratio of IC50 for human K562 cells to MIC for methicillin-sensitive Staphylococcus aureus ATCC 29213; assay type: toxicity
Homo sapiens = species on record: Homo sapiens; assay: Inhibition of human topoisomerase-2 mediated kinetoplast DNA decatenation assessed as remaining activity at 100 uM relative to control
DNA gyrase = DNA gyrase (Staphylococcus aureus, UniProt P0A0K8+P20831); assay: Inhibition of Staphylococcus aureus DNA gyrase supercoiling activity using pBR322 as substrate after 30 mins by agarose gel electrophoresis; assay type: protein-complex assay
DNA gyrase, sequence (P0A0K8 whole entry): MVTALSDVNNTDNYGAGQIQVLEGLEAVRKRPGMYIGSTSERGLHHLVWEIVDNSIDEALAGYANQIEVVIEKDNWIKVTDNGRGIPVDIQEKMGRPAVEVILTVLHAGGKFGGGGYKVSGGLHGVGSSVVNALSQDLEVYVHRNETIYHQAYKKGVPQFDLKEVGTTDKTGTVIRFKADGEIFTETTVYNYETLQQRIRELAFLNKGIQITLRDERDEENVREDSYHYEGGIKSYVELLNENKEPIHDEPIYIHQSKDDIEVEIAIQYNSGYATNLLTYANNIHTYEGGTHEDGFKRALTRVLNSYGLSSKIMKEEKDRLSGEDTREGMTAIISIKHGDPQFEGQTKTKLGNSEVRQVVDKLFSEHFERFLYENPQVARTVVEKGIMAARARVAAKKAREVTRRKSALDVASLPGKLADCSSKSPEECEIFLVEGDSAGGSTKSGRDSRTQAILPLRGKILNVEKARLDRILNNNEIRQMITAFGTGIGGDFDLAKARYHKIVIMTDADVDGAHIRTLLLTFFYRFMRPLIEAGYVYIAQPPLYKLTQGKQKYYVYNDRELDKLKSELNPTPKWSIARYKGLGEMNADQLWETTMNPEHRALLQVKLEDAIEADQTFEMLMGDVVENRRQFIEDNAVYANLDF
DNA gyrase, sequence (P20831 whole entry): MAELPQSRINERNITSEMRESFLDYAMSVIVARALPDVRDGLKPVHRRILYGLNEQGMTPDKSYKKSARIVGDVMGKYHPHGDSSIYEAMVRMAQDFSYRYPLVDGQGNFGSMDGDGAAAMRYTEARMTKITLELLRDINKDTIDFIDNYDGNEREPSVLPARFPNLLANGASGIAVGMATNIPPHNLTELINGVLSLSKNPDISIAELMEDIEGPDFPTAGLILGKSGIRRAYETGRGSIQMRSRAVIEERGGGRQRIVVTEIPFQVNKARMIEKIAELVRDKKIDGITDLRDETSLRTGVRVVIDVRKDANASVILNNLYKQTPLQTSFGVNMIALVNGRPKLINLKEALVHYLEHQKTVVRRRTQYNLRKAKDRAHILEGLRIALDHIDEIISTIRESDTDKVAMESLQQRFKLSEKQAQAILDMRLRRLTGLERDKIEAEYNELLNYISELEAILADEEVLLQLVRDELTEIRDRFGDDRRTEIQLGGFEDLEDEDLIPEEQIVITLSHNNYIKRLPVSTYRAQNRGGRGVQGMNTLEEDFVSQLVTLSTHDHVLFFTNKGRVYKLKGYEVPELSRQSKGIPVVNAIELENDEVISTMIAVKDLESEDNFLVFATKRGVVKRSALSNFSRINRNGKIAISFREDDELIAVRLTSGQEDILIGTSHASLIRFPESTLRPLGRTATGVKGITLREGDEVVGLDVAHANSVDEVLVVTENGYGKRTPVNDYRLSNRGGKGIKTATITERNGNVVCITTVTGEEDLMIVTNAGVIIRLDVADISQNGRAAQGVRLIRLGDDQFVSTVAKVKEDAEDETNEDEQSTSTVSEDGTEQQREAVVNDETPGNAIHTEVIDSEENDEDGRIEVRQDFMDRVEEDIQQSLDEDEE

Molecule `COc1ccc2nccc(CC[C@H]3CC[C@H](NCc4ccc5c(n4)NC(=O)CO5)CC3)c2c1` has an IC50 [1] of 11 µM, an IC50 [2] of 0.41 µM and an IC50 (K562) of 12 µM.
`COc1ccc2nccc(CCN3CCC(NCc4ccc5c(n4)NC(=O)CO5)CC3)c2c1` gave an IC50 [1] of 16 µM, an IC50 [2] of 3.8 µM and an IC50 (K562) of 19 µM.
Work on `COc1ccc2nccc(CC[C@H]3CC[C@H](NCc4cc5c(cn4)OCCO5)CC3)c2c1` yielded an IC50 [1] of 5.7 µM, an IC50 [2] of 0.94 µM and an IC50 (K562) of 7.5 µM.
Molecule `COc1ccc2nccc(CC[C@H]3OC[C@H](NCc4ccc(Cl)cn4)CO3)c2c1` has an MIC (Staphylococcus aureus [3]) of 8 µg/mL (≈ 19.3 µM).
`COc1ccc2nccc(CC[C@H]3OC[C@H](NCc4ccccc4Cl)CO3)c2c1` showed an MIC (Staphylococcus aureus [3]) of over 64 µg/mL.
`COc1ccc2nccc(CC[C@H]3OC[C@H](NCc4ccccc4)CO3)c2c1` gave an MIC (Staphylococcus aureus [3]) of over 64 µg/mL.
For `COc1ccc2nccc(CCN3CCC(NCc4ccc(Cl)c(Cl)c4)CC3)c2c1`, the IC50 [2] was 1 µM.
For `O=c1ccc2ncc(=O)n3c2n1C[C@H]3CN1CCC(NCc2cc3c(cn2)OCCC3)CC1` [GEPOTIDACIN], the IC50 [4] was 1310 µM.
Molecule `COc1ccc2nccc(CC[C@H]3OC[C@H](NCc4ccc5c(c4)OCCO5)CO3)c2c1` has an IC50 [1] of 8.8 µM, an IC50 [5] of 14 µM and an MIC (Staphylococcus aureus [6]) of 0.5 µg/mL (≈ 1.15 µM). The selectivity ratio [7] was 3.5, the IC50 [2] was 5.1 µM and the Activity (Homo sapiens) was 84.2%. The MIC (Staphylococcus aureus [3]) was 0.25 to 1 µg/mL (≈ 0.573 to 2.29 µM) and the IC50 (K562) was 7.4 µM.
With `COc1ccc2nccc(CCN3CCC(NCc4cc5c(cn4)OCCO5)CC3)c2c1` the IC50 [1] was 22 µM, the IC50 [2] was 1.9 µM and the IC50 (K562) was 28 µM.
Work on `COc1ccc2nccc(CC[C@H]3OC[C@H](NCc4ccc(Cl)c(Cl)c4)CO3)c2c1` yielded an IC50 [1] of 15 µM, an IC50 [5] of over 100 µM and an MIC (Staphylococcus aureus [6]) of 0.5 µg/mL (≈ 1.12 µM). For the same molecule, the IC50 [2] was 4.8 µM, the Activity (Homo sapiens) was 93.2% and the IC50 (K562) was 20 µM.
In the case of `COc1cc([C@@H]2c3cc4c(cc3[C@@H](O[C@@H]3O[C@@H]5CO[C@@H](C)O[C@H]5[C@H](O)[C@H]3O)[C@H]3COC(=O)[C@H]23)OCO4)cc(OC)c1O` [ETOPOSIDE], the IC50 [1] is reported as 5.1 µM, the Activity (Homo sapiens) is reported as 33.6% and the IC50 (K562) is reported as 0.3 µM.
`COc1ccc2nccc(CC[C@H]3OC[C@H](NCc4ccc5c(c4)NC(=O)CO5)CO3)c2c1` gave an IC50 [5] of over 100 µM, an MIC (Staphylococcus aureus [6]) of 1 µg/mL (≈ 2.22 µM) and an MIC (Staphylococcus aureus [3]) of 1 to 2 µg/mL (≈ 2.22 to 4.45 µM).
`COc1ccc2nccc(CC[C@H]3OC[C@H](NCc4ccccn4)CO3)c2c1` showed an MIC (Staphylococcus aureus [3]) of 8 µg/mL (≈ 21.1 µM).
`COc1ccc2nccc(CC[C@H]3OC[C@H](NCc4cccnc4)CO3)c2c1` gave an MIC (Staphylococcus aureus [3]) of over 64 µg/mL.
In the case of `COc1ccc2nccc(CC[C@H]3OC[C@H](NCc4ccc(Cl)cc4)CO3)c2c1`, the IC50 [1] is reported as 16 µM, the IC50 [5] is reported as over 100 µM and the IC50 (DNA gyrase) is reported as 1.2 µM. For the same molecule, the MIC (Staphylococcus aureus [6]) was 4 µg/mL (≈ 9.69 µM), the IC50 [2] was 2 µM and the Activity (Homo sapiens) was 97.8%. It also gave an MIC (Staphylococcus aureus [3]) of 1 µg/mL (≈ 2.42 µM) and an IC50 (K562) of 12 µM.
`COc1ccc2nccc(CC[C@H]3CC[C@H](NCc4ccc(Cl)c(Cl)c4)CC3)c2c1` gave an IC50 [2] of 2.3 µM.
With `COc1ccc2nccc(CC[C@H]3OC[C@H](NCc4cc5c(cn4)OCCC5)CO3)c2c1` the IC50 [1] was 40 µM, the IC50 [5] was 25 to 50 µM and the MIC (Staphylococcus aureus [6]) was 2 µg/mL (≈ 4.59 µM). The IC50 [2] was 12 µM, the Activity (Homo sapiens) was 93.8% and the MIC (Staphylococcus aureus [3]) was 1 µg/mL (≈ 2.3 µM). It also gave an IC50 (K562) of 32 µM.
In the case of `COc1ccc2nccc(CC[C@H]3OC[C@H](NCc4cc5c(cn4)OCCO5)CO3)c2c1`, the IC50 [1] is reported as 48 µM, the IC50 [5] is reported as 50 µM and the MIC (Staphylococcus aureus [6]) is reported as 2 µg/mL (≈ 4.57 µM). The IC50 [2] was 9.5 µM, the Activity (Homo sapiens) was 95.1% and the MIC (Staphylococcus aureus [3]) was 1 to 2 µg/mL (≈ 2.29 to 4.57 µM). It also gave an IC50 (K562) of 40 µM.
For `O=C(O)c1cn(C2CC2)c2cc(N3CCNCC3)c(F)cc2c1=O` [CIPROFLOXACIN], the IC50 [5] was 14.3 µM and the Activity (Homo sapiens) was 85.5%.
With `COc1ccc2nccc(CC[C@H]3OC[C@H](NCc4ccc5c(n4)NC(=O)CS5)CO3)c2c1` the IC50 [1] was 34 µM, the IC50 [5] was over 100 µM and the MIC (Staphylococcus aureus [6]) was 0.5 µg/mL (≈ 1.07 µM). It also gave an IC50 [2] of 1.3 µM, an Activity (Homo sapiens) of 91.1% and an MIC (Staphylococcus aureus [3]) of 0.5 µg/mL (≈ 1.07 µM). For the same molecule, the IC50 (K562) was 31 µM.
With `COc1ccc2nccc(CC[C@H]3CC[C@H](NCc4ccc5c(c4)OCCO5)CC3)c2c1` the IC50 [1] was 4.5 µM, the IC50 [2] was 0.26 µM and the IC50 (K562) was 4.2 µM.
`COc1ccc2nccc(CC[C@H]3OC[C@H](NCc4ccc5c(n4)NC(=O)CO5)CO3)c2c1` showed an IC50 [1] of 44 µM, an IC50 [5] of over 100 µM and an MIC (Staphylococcus aureus [6]) of 1 µg/mL (≈ 2.22 µM). It also gave an IC50 [2] of 2.5 µM, an Activity (Homo sapiens) of 99.1% and an MIC (Staphylococcus aureus [3]) of 0.5 µg/mL (≈ 1.11 µM). It also gave an IC50 (K562) of 24 µM.
For `COc1ccc2nccc(CCN3CCC(NCc4ccc5c(c4)OCCO5)CC3)c2c1`, the IC50 [1] was 12 µM, the IC50 [2] was 0.81 µM and the IC50 (K562) was 10 µM.
In the case of `COc1ccc2nccc(CC[C@H]3OC[C@H](NCc4cccc(Cl)c4)CO3)c2c1`, the MIC (Staphylococcus aureus [3]) is reported as 32 µg/mL (≈ 77.5 µM).
`CN[C@H](CC(C)C)C(=O)N[C@H]1C(=O)N[C@@H](CC(N)=O)C(=O)N[C@H]2C(=O)N[C@H]3C(=O)N[C@H](C(=O)N[C@H](C(=O)O)c4cc(O)cc(O)c4-c4cc3ccc4O)[C@H](O)c3ccc(c(Cl)c3)Oc3cc2cc(c3O[C@@H]2O[C@H](CO)[C@@H](O)[C@H](O)[C@H]2O[C@H]2C[C@](C)(N)[C@H](O)[C@H](C)O2)Oc2ccc(cc2Cl)[C@H]1O` [VANCOMYCIN] showed an MIC (Staphylococcus aureus [6]) of 1 to 2 µg/mL (≈ 0.69 to 1.38 µM).
